The values below come from PMC5080452 (Bioorganic & Medicinal Chemistry, 2016).

Data set [1] concerns the target T1, Electrophorus electricus (Ee) AChE (Electrophorus electricus, UniProt O42275).
T1 construct: purchased Sigma-Aldrich
Nature of the data set: Acetylcholinesterase inhibitory activity (Ellman method). It is filed as biochemical. Particulars: mean ± SEM, read-out: EeAChE IC50. (In general: In Ellman's method for cholinesterases, released thiocholine reacts with DTNB.)
Method: The inhibitory activity against Electrophorus electricus (Ee) AChE (Sigma–Aldrich) was evaluated spectrophotometrically by the method of Ellman et al.[56] […] Inhibition curves were performed in duplicates using at least 10 increasing concentrations of inhibitors and preincubated for 20 min at 37 °C before adding the substrate. One duplicate sample without inhibitor was always present to yield 100% of AChE activity.
Results are expressed as mean ± SEM of at least 4 experiments performed in duplicate.

A short description of another data set: in vitro. Particulars: pig, PAMPA. (In general: PAMPA measures passive passage across an artificial lipid membrane.)
The conditions of data set [2]: commercial drugs for PAMPA-BBB assay validation; cited from earlier work.

T1 sequence (O42275 24-633): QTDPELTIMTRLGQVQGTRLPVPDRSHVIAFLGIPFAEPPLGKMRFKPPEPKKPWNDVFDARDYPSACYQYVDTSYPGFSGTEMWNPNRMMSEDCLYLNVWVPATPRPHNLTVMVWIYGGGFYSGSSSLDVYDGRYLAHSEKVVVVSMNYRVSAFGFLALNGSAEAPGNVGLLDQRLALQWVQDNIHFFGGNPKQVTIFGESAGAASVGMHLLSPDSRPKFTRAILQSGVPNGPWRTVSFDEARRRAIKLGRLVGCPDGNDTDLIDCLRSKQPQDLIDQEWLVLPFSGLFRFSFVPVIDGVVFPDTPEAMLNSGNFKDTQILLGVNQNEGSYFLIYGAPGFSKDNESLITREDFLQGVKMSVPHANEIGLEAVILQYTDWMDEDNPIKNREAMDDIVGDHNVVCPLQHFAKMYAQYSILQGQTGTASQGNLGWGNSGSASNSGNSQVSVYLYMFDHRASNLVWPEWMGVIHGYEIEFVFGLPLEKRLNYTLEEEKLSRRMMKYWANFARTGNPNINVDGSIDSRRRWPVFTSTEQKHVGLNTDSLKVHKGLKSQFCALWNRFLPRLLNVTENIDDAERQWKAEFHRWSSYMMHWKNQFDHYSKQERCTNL

For orientation: IC50 means the concentration needed to halve the response being measured. In general, Papp refers to a coefficient for how fast a substance crosses the barrier. Take `CC1=CC2Cc3nc4cc(Cl)ccc4c(NCCCCCCCCCN)c3C(C1)C2` (centres unmarked) [5e]: in data set [1], the IC50 was determined as 0.0164 ± 0.0018 µM. Also, the Papp in the data set “in vitro” is 71 ± 7 nm/s.
With `N#CCCCCCCNc1c2c(nc3cc(Cl)ccc13)CCCC2` [12c, 7-[(6-Chloro-1,2,3,4-tetrahydroacridin-9-yl)amino]heptanenitrile], the Papp in “in vitro” stood at 167 ± 9 nm/s.
As for `CC1=CC2Cc3nc4cc(Cl)ccc4c(NCCCCCCCCCCCN)c3C(C1)C2` (centres unmarked) [5g], in data set [1], the IC50 amounted to 0.0353 ± 0.0039 µM. This compound returned a Papp in the data set “in vitro” of 40 ± 2 nm/s.
With `N=C(N)NCCCCCCCCCNc1c2c(nc3cc(Cl)ccc13)CCCC2` [16e, 1-{9-[(6-Chloro-1,2,3,4-tetrahydroacridin-9-yl)amino]nonyl}guanidine], the IC50 in data set [1] is 0.0164 ± 0.0015 µM. In the data set “in vitro”, this compound yielded a Papp of 67 ± 4 nm/s.
As to `CC1=CC2Cc3nc4cc(Cl)ccc4c(NCCCCCCCCCNC(=N)N)c3C(C1)C2` (centres unmarked) [6e, 1-{9-[(3-Chloro-6,7,10,11-tetrahydro-9-methyl-7,11-methanocycloocta[b]quinolin-12-yl)amino]nonyl}guanidine], in data set [1], the IC50 was found to be 0.0106 ± 0.0008 µM. Moreover, the Papp in “in vitro” was 54 ± 3 nm/s.
As for `N#CCCCCCCCCNc1c2c(nc3cc(Cl)ccc13)CCCC2` [12e, 9-[(6-Chloro-1,2,3,4-tetrahydroacridin-9-yl)amino]nonanenitrile], in data set [1], the IC50 came out at 0.0243 ± 0.0045 µM. Also, in “in vitro”, the Papp worked out at 54 ± 4 nm/s.
Regarding `CC1=CC2Cc3nc4cc(Cl)ccc4c(NCCCCCCNC(=N)N)c3C(C1)C2` (centres unmarked) [6b, 1-{6-[(3-Chloro-6,7,10,11-tetrahydro-9-methyl-7,11-methanocycloocta[b]quinolin-12-yl)amino]hexyl}guanidine], in data set [1], the IC50 was 0.0118 ± 0.0013 µM. Also, the Papp in “in vitro” is 29 ± 4 nm/s.
The corresponding values for `CC1=CC2Cc3nc4cc(Cl)ccc4c(NCc4ccc(C#N)cc4)c3C(C1)C2` (centres unmarked) [4h] are 0.158 ± 0.021 µM and 193 ± 12 nm/s.
The corresponding values for `NCCCCCCCNc1c2c(nc3ccccc13)CCCC2` [13c] are 0.0239 ± 0.0026 µM and 74 ± 1 nm/s.
The matching figures for `CC1=CC2Cc3nc4cc(Cl)ccc4c(NCCCN4CCCCC4)c3C(C1)C2` (racemic) [compound 7, 3-Chloro-6,7,10,11-tetrahydro-9-methyl-12-[(3-piperidinopropyl)amino]-7,11-methanocycloocta[b]quinoline]: 0.0484 ± 0.0027 µM and 59 ± 4 nm/s.
Turning to `N=C(N)NCCCCCCCNc1c2c(nc3ccccc13)CCCC2` [15c, 1-{7-[(1,2,3,4-Tetrahydroacridin-9-yl)amino]heptyl}guanidine], the IC50 in data set [1] was found to be 0.0239 ± 0.0026 µM. In “in vitro”, this compound had a Papp of 59 ± 3 nm/s.
The matching figures for `NCCCCCCCCCNc1c2c(nc3ccccc13)CCCC2` [13e]: 0.0156 ± 0.0015 µM and 69 ± 5 nm/s.
For `CC1=CC2Cc3nc4cc(Cl)ccc4c(NCCCCC#N)c3C(C1)C2` (centres unmarked) [4a], the IC50 in data set [1] came out at 0.0269 ± 0.0011 µM.
The same measure, in the same setting: with `CC1=CC2Cc3nc4cc(Cl)ccc4c(N)c3C(C1)C2` (centres unmarked) [compound 1, huprine Y, reference compound] the figure was 0.0003 ± 1e-05 µM.
As for `N#CCCCCCCCCNc1c2c(nc3ccccc13)CCCC2` [11e, 9-[(1,2,3,4-Tetrahydroacridin-9-yl)amino]nonanenitrile], the IC50 in data set [1] was 0.0449 ± 0.0016 µM. In the data set “in vitro”, this compound gave a Papp of 76 ± 3.5 nm/s.
The matching figures for `NCCCCCCCCCNc1c2c(nc3cc(Cl)ccc13)CCCC2` [14e]: 0.0145 ± 0.0016 µM and 58 ± 3 nm/s.
The matching figures for `CC1=CC2Cc3nc4cc(Cl)ccc4c(NCCCCCCCN)c3C(C1)C2` (centres unmarked) [5c]: 0.036 ± 0.0035 µM and 76 ± 7 nm/s.
The matching figures for `CC1=CC2Cc3nc4cc(Cl)ccc4c(NCCCCCCCCCC#N)c3C(C1)C2` (centres unmarked) [4f]: 0.00967 ± 0.00089 µM and 113 ± 12 nm/s.
With `CN(C)CCCN1c2ccccc2Sc2ccccc21` [Promazine], in data set [2], the “Pe, literature value” is reported as 8.8 10^−6 cm s^−1.
On to `CC1=CC2Cc3nc4cc(Cl)ccc4c(NCCCCCCCCN)c3C(C1)C2` (centres unmarked) [5d], for which the IC50 in data set [1] stood at 0.0173 ± 0.0012 µM. In “in vitro”, this compound registered a Papp of 98 ± 6 nm/s.
The matching figures for `N#CCCCCCCCNc1c2c(nc3cc(Cl)ccc13)CCCC2` [12d, 8-[(6-Chloro-1,2,3,4-tetrahydroacridin-9-yl)amino]octanenitrile]: 0.046 ± 0.006 µM and 147 ± 8 nm/s.
The corresponding values for `CC1=CC2Cc3nc4cc(Cl)ccc4c(NCCCN4CCOCC4)c3C(C1)C2` (racemic) [compound 8, (±)-3-Chloro-6,7,10,11-tetrahydro-9-methyl-12-[(3-morpholinopropyl)amino]-7,11-methanocycloocta[b]quinoline] are 0.0133 ± 0.0008 µM and 150 ± 10 nm/s.
For `CC1=CC2Cc3nc4cc(Cl)ccc4c(NCCCCCC#N)c3C(C1)C2` (centres unmarked) [4b], the IC50 in data set [1] is 0.0311 ± 0.0031 µM. In “in vitro”, this compound showed a Papp of 124 ± 6 nm/s.
For the compound `N=C(N)NCCCCCCCCCNc1c2c(nc3ccccc13)CCCC2` [15e, 1-{9-[(1,2,3,4-Tetrahydroacridin-9-yl)amino]nonyl}guanidine], in data set [1], the IC50 is 0.0305 ± 0.0019 µM. In “in vitro”, this compound registered a Papp of 65 ± 3 nm/s.
In “in vitro”, `CC1=C[C@@H]2Cc3nc4cc(Cl)ccc4c(NCc4ccc(CN)cc4)c3[C@H](C1)C2` [5h] gave a Papp of 117 ± 11 nm/s.
Take `N#CCCCCCCNc1c2c(nc3ccccc13)CCCC2` [11c, 7-[(1,2,3,4-Tetrahydroacridin-9-yl)amino]heptanenitrile]: the IC50 in data set [1] stood at 0.0539 ± 0.003 µM. The Papp in the data set “in vitro” worked out at 112 ± 2 nm/s.
